The source of these data is patent publication US20210277050A1, “OPHTHALMIC COMPOSITIONS AND METHODS FOR THE TREATMENT OF EYE DISORDERS” (Cellix Bio Private Limited, priority 2018, published 2021).

Data set [1] relates to BSO-Induced Cataract Formation. As to the kind of experiment: BSO-induced cataract formation in rats (slit-lamp, lenses opaque or clear). To be noted: read at 14-15 days; for animals developed cataract: new born rats.
Procedure: Effects of CLX-SYN-G165-001 on BSO-Induced Cataract Formation in Rats Sprague-Dawley rats (female, timed pregnant) were housed in the Research Animal Facilities and given food and water ad libitum. They were breast fed.
Animals were divided into 3 groups and given 4 injections per day for 2 days, according to the following protocol: Each experimental group consisted of 20-25 animals. BSO, L-Buthionine-(S,R)-sulfoximine was dissolved in 0.1 M NaCl and injected at a concentration of 3 mmol/g body weight (total volume not exceeding 60 ml). CLX-SYN-G165-001 was dissolved in ethanol: NaCl (50:50, v/v). BSO was injected subcutaneously into new born animals (age 28-36 hours). CLX-SYN-G165-001 (15 mg/kg b.w.) was given intraperitoneally. An equivalent volume of ethanol: NaCl and/or NaCl was given to the controls. Rats were sacrificed when they opened their eyes (14-15 days). Cataract formation was visualized with a slit-lamp microscope and the lenses were classified as opaque or clear.
The next data set concerns Lens GSH. As to the kind of experiment: Lens GSH and GSSG level (enzymatic recycling method) in BSO-treated rats.

Procedure for Lens GSH: Animals were divided into 3 groups and given 4 injections per day for 2 days, according to the following protocol: Each experimental group consisted of 20-25 animals. BSO, L-Buthionine-(S,R)-sulfoximine was dissolved in 0.1 M NaCl and injected at a concentration of 3 mmol/g body weight (total volume not exceeding 60 ml). CLX-SYN-G165-001 was dissolved in ethanol: NaCl (50:50, v/v). BSO was injected subcutaneously into new born animals (age 28-36 hours). CLX-SYN-G165-001 (15 mg/kg b.w.) was given intraperitoneally. An equivalent volume of ethanol: NaCl and/or NaCl was given to the controls. Rats were sacrificed when they opened their eyes (14-15 days). […] Isolation of lenses: After decapitation of the animals the eyes were carefully dissected out from the ciliary body and the lens capsule was released from the enucleated eye globes. Each lens was weighed and placed in a microfuge tube and frozen immediately in liquid nitrogen for future analyses. Glutathione: Frozen lenses were homogenized in 5% sulfosalicylic acid, 5 mM EDTA, ice cold and bubbled with argon. After centrifugation GSH and GSSG were determined by the enzymatic recycling method.

As for `CC(C)=CCC[C@@H](C)[C@H]1CC[C@@]2(C)C3=C(CC[C@]12C)[C@@]1(C)CC[C@H](OC(=O)CCCC[C@@H]2CCSS2)C(C)(C)[C@@H]1CC3` [CLX-SYN-G165-001], the animals developed cataract was 13% in data set [1] (BSO plus CLX-SYN-G165-001 (15 mg/kg b.w. intraperitoneally), 4 injections per day for 2 days, p<0.005 vs BSO only) and 0% in data set [1] (CLX-SYN-G165-001 without BSO (15 mg/kg b.w. intraperitoneally)). Moreover, the “lens GSH level, % that of control level” value in the data set with Lens GSH (treatment with BSO and CLX-SYN-G165-001, p<0.001 vs BSO only) is listed as 84-87%.
In turn, `CCCCS(=N)(=O)CCC(N)C(=O)O` [BSO, L-Buthionine-(S,R)-sulfoximine, reference compound] yielded an animals developed cataracts in data set [1] (BSO alone, subcutaneously, new born rats (age 28-36 hours)) of 100%. The “GSH in the lenses, % lower than that of the control lenses” value with Lens GSH (BSO-treated rats) is given as “about 55%”.
